pEC50, pIC50: −log10 of the molar value.
Assays:
[1] = system: LTB4 production in human whole blood; assay: Inhibition of LTB4 Production in Blood; assay type: cell-based; details: 1 h, 20 μM A23187, 60 minutes at 37° C., LTB4 in plasma by ELISA, read-out: protection against LTB4 at an EC50
Protocol: • Human whole blood (Na citrate) (Stanford Blood Center) • A23187, (Sigma, Cat# C-7522) • Leukotriene B4 EIA reagents (Cayman Chemical, Cat # 520111) • BWA4C (Sigma, Cat # B7559) Procedure Preparation of A23187:
A23187 was prepared as a 10 mM stock solution in DMSO (aliquots can be stored at −20° C.). On the day of the assay the stock solution was diluted as follows: 70 μL 10 mM stock added to 1.6 mL plasma to give a working concentration of 0.42 mM.
From a 30 mM stock solution in DMSO, test articles were diluted to a working concentration of 600 μM in PBS (i.e. 10 μL stock solution+490 μL PBS). This is the highest concentration (gives a final testing concentration of 30 μM). From this 600 μM solution test articles were serially diluted 1:3 in PBS to give a dose-response curve. 10 μL of each concentration of test article was then added to 4 wells of a 96-well plate (i.e. testing in quadruplicate). A positive control compound, BWA4C was used in every assay.
Human whole blood was added to the plates containing compounds (190 μL per well) and mixed well. The blood was incubated with compound at 37° C. for 15 minutes. Following this incubation, 10 μL of 0.42 mM A23187 was added to each well except the negative control wells to give a final calcium ionophore concentration of 20 μM. The plates were then incubated at 37° C. for 60 minutes. After the incubation period, plates were centrifuged for 15 min at 2000 g at 4° C. in sealed microplate buckets. Plasma was then removed for quantitation of LTB4 levels by ELISA.
LTB4 levels in the plasma were determined using a commercially available ELISA kit from Cayman Chemicals. The ELISA was run according to the manufacturer's instructions. The LTB4 levels in the vehicle control sample were then compared to those in which the test article had been added. From this a percent inhibition of LTB4 production by each concentration of test article was calculated and the IC50 was determined.

[2] = system: release of the leukotriene LTB4 from a neutrophil cell line (MPRO cell line); assay: LTB4-Cell Assay; assay type: cell-based; details: Mus musculus, 1 h, read-out: inhibition of LTB4 with an EC50
Excerpt: • This procedure was used for measuring the release of the leukotriene LTB4 from a neutrophil cell line using a competitive ELISA technique. Materials and Equipments Materials for Cell Preparation and Experiment • MPRO cell line (ATCC, Catalog # CRL-11422) • Calcium ionophore (A23187) (Sigma, Catalog # C7522) • Nordihydroguaiaretic acid (NDGA) (BioMol ,Catalog # EI101-0001) • Retinoic Acid (all-trans) (ATRA) (Sigma, Catalog # 95152) • Sterile, tissue-culture treated 96-well plates (Corning, Catalog # 3614) Materials for LTB4 ELISA • Precoated (Mouse Anti-Rabbit IgG) EIA 96 Well Strip Plates (Cayman, Catalog # 400004) • Leukotriene B4 AChE Tracer (Cayman Catalog # 420110) • Leukotriene B4 EIA Antiserum (Cayman Catalog # 420112) • Ellman's Reagent (Cayman Catalog # 400050) • EIA Buffer Concentrate (10×) (Cayman Catalog # 400060) • Wash Buffer Concentrate (400×) (Cayman Catalog # 400062) • Plastic plate covers (Cayman Catalog # 400012) Procedure
A mouse promyelocytic cell line (MPRO) was used in this assay. These cells are committed immature neutrophils that can be differentiated into mature neutrophils by treatment with 10 μM all-trans retinoic acid for 72 hours.
Following 72 hours of differentiation, cells were stimulated with 1 μM of a calcium ionophore (A23187) in the presence or absence of test compound or vehicle for 1 hour at 37° C. After this time, supernatant was removed from the cells and the LTB4 levels were determined following manufacturer's instructions, using a Leukotriene B4 EIA kit from Cayman (Cat # 5201 11). The negative controls were media samples from differentiated but un-stimulated cells. The compounds were screened at 5 concentrations in quadruplicate starting at 10 μM.

[3] = biological target: T1, human recombinant 5-Lipoxygenase (Homo sapiens, UniProt P09917); assay: 5-Lipoxygenase Enzyme Assay; assay type: biochemical; details: 70 μM arachidonic acid, 10 minute incubation at room temperature, FOX reagent, absorbance at 620 nm; read-out: inhibition of 5-Lipoxygenase with an IC50
T1 sequence (P09917 1-674): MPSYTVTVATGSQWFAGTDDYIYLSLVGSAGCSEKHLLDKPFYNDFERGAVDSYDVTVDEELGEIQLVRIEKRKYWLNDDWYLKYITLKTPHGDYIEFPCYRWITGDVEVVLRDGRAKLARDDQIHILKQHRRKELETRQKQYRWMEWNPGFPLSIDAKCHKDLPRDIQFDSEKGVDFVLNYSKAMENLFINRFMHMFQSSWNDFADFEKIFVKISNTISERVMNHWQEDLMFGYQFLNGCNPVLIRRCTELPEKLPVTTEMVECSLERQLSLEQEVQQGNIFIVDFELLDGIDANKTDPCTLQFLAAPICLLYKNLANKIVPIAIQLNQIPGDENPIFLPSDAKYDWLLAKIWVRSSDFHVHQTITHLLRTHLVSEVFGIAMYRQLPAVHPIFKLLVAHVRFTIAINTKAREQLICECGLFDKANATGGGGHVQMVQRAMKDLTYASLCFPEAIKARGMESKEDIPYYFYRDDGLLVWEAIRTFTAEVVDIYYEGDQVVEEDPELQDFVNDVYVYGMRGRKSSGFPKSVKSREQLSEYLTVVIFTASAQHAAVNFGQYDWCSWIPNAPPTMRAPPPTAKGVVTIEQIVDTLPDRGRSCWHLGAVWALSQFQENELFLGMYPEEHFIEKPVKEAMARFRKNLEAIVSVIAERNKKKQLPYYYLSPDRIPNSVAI
Procedure, shortened: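 Recombinant human 5-LOX in 50 mM Tris-HCl pH 7.4 was preincubated with compound, then 70 μM arachidonic acid was added for 10 min at room temperature. Hydroperoxide was read by FOX reagent (ferric xylenol orange, 1 h complex formation) as absorbance at 620 nm. Five concentrations in triplicate were tested, starting at 10 μM.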

Compound | pEC50 [1] | pEC50 [2] | pIC50 [3]
CONC1CC2(CCC2)Oc2cc(C)c(O)c(C)c21 (stereo in doubt) [(4R)-4-(methoxyamino)-5,7-dimethyl-3,4-dihydrospiro[chromene-2,1′-cyclobutan]-6-ol] | > 5.00 | > 5.30 | > 6.52
CONC1CC2(CCC2)Oc2cc(C)c(O)c(C)c21 (stereo in doubt) [(4S)-4-(methoxyamino)-5,7-dimethyl-3,4-dihydrospiro[chromene-2,1′-cyclobutan]-6-ol] | > 5.00 | > 5.30 | > 6.52
Cc1c(C)c2c(c(C)c1O)C=C(CO)C1(CCC1)O2 [3-(hydroxymethyl)-5,7,8-trimethylspiro[chromene-2,1′-cyclobutan]-6-ol] | > 5.00 | > 5.30 | > 6.52
COCC1=Cc2c(C)c(O)c(C)c(C)c2OC12CCC2 [3-(methoxymethyl)-5,7,8-trimethylspiro[chromene-2,1′-cyclobutan]-6-ol] | > 5.00 | > 5.30 | > 6.52
CCONCC1Cc2c(cc(C)c(O)c2C)OC12CCC2 (stereo not shown) [3-[(ethoxyamino)methyl]-5,7-dimethyl-3,4-dihydrospiro-[chromene-2,1′-cyclobutan]-6-ol] | > 5.00 | > 5.30 | 
CONCC1=Cc2c(cc(C)c(O)c2C)OC12CCC2 [3-[(methoxyamino)methyl]-5,7-dimethylspiro[chromene-2,1′-cyclobutan]-6-ol] | > 5.00 | > 5.30 | 
COC1Cc2c(C)c(O)c(C)c(C)c2OC12CCC2 (stereo not shown) [3-methoxy-5,7,8-trimethyl-3,4-dihydrospiro[chromene-2,1′-cyclobutan]-6-ol] | > 5.00 | > 5.30 | 
CCONC1CC2(CCC2)Oc2c(C)c(C)c(O)c(C)c21 (stereo not shown) [4-(ethoxyamino)-5,7,8-trimethyl-3,4-dihydrospiro[chromene-2,1′-cyclobutan]-6-ol] | > 5.00 | > 5.30 | > 6.52
Cc1c(C)c2c(c(C)c1O)C(NO)CC1(CCC1)O2 (stereo not shown) [4-(hydroxyamino)-5,7,8-trimethyl-3,4-dihydrospiro[chromene-2,1′-cyclobutan]-6-ol] | > 5.00 | > 5.30 | > 6.52
CCc1cc2c(c(CC)c1O)C(NOC)CC1(CCC1)O2 (stereo not shown) [4-(methoxyamino)-5,7-diethyl-3,4-dihydrospiro[chromene-2,1′-cyclobutan]-6-ol] | > 5.00 | > 5.30 | > 6.52
CONC1CC2(CCC2)Oc2cc(C)c(O)c(C)c21 (stereo not shown) [4-(methoxyamino)-5,7-dimethyl-3,4-dihydrospiro[chromene-2,1′-cyclobutan]-6-ol] | > 5.00 | > 5.30 | > 6.52
CCOC1c2c(C)c(O)c(C)c(C)c2OCC12CCC2 (stereo not shown) [4-ethoxy-5,7,8-trimethylspiro[chroman-3,1′-cyclobutan]-6-ol] | > 5.00 | > 5.30 | > 6.52
COC1c2c(C)c(O)c(C)c(C)c2OC2(CCC2)C1C (stereo not shown) [4-methoxy-3,5,7,8-tetramethyl-3,4-dihydrospiro[chromene-2,1′-cyclobutan]-6-ol] | > 5.00 | > 5.30 | 
Cc1c(C)c2c(c(C)c1O)CC(O)C1(CCC1)O2 (stereo not shown) [5,7,8-trimethyl-3,4-dihydrospiro[chromene-2,1′-cyclobutane]-3,6-diol] | > 5.00 | > 5.30 | 
CCc1cc2c(c(CC)c1O)CC(CO)C1(CCC1)O2 (stereo not shown) [5,7-diethyl-3-(hydroxymethyl)spiro[chroman-2,1′-cyclobutan]-6-ol] | > 5.00 | > 5.30 | 
Cc1c(C)c2c(c(C)c1O)C(=NO)CC1(CCC1)O2 [6-hydroxy-5,7,8-trimethylspiro[chromene-2,1′-cyclobutan]-4(3H)-one oxime] | > 5.00 | > 5.30 | 
CCc1cc2c(c(CC)c1O)CC(COC(N)=O)C1(CCC1)O2 (stereo not shown) [(5,7-diethyl-6-hydroxyspiro[chroman-2,1′-cyclobutane]-3-yl)methyl carbamate] | > 5.00 | > 5.30 | 

Reference: US7576094B2, “Spiro derivatives as lipoxygenase inhibitors” (Eli Lilly and Company, priority 2004, dated 2009)
